From ChEMBL document CHEMBL3400089, “Studies on antimicrobial effects of four ligands and their transition metal complexes with 8-mercaptoquinoline and pyridine terminal groups” (2015) come the findings set out here.

≈ marks a conversion by molar mass, not a printed value. Structures can show the parent of a compound that is named as a salt.

Common to all, as to assay type: functional
The subject of experiment [1] is Sporosarcina ureae. In words: Antimicrobial activity against Sarcina ureae after 24 hrs by two fold serial microdilution method. For orientation: Dilution methods test growth across graded concentrations, often in twofold steps.
In experiment [2] the test system is Escherichia coli. The experiment in a line: Antimicrobial activity against Escherichia coli ATCC 25922 after 24 hrs by two fold serial microdilution method. The following applies: ATCC 25922, 24 h.
In experiment [3] the test system is Pseudomonas aeruginosa. In words: Antimicrobial activity against Pseudomonas aeruginosa after 24 hrs by two fold serial microdilution method.
For experiment [4], the system named is Staphylococcus aureus. The experiment in a line: Antimicrobial activity against Staphylococcus aureus ATCC 27154 after 24 hrs by two fold serial microdilution method. As to conditions: ATCC 27154, 24 h.
Experiment [5] deals with Fusarium oxysporum f. sp. cubense. In words: Antimicrobial activity against Fusarium oxysporum f. sp. cubense after 48 hrs by two fold serial microdilution method.
Experiment [6] deals with Saccharomyces cerevisiae. The experiment in a line: Antimicrobial activity against Saccharomyces cerevisiae after 48 hrs by two fold serial microdilution method.
The subject of experiment [7] is Aspergillus niger. The experiment in a line: Antimicrobial activity against Aspergillus niger after 48 hrs by two fold serial microdilution method.

In the case of `CC1(C)S[C@@H]2[C@H](NC(=O)[C@H](N)c3ccccc3)C(=O)N2[C@H]1C(=O)O` [AMPICILLIN], the MIC – broadly, the lowest concentration found to suppress growth – in experiment [1] was 17.4 µM (≈ 6.08 µg/mL); in experiment [2] it was 34.7 µM (≈ 12.1 µg/mL); in experiment [3], 17.4 µM (≈ 6.08 µg/mL); in experiment [4], 69.4 µM (≈ 24.2 µg/mL).

NYSTATIN: the MIC in experiment [5] amounted to 28.2 µM; in experiment [6] it was 14.1 µM; in experiment [7] it was 14.1 µM.

For the compound `c1cncc(CSc2cccc3cccnc23)c1`, the MIC is > 198 µM in experiment [1]; > 495 µM in experiment [5]; 99.1 µM (≈ 25 µg/mL) in experiment [2]; > 198 µM in experiment [3]; > 495 µM in experiment [6]; > 495 µM in experiment [7]. In addition, the MIC in experiment [4] is > 198 µM.

`c1cnc2c(SCc3ccncc3)cccc2c1`: the MIC was > 198 µM in experiment [1], 24.8 µM (≈ 6.26 µg/mL) in experiment [2], > 198 µM in experiment [3] and > 198 µM in experiment [4].

For the compound `CN[C@@H]1[C@H](O[C@H]2[C@H](O[C@H]3[C@H](O)[C@@H](O)[C@H](N=C(N)N)[C@@H](O)[C@@H]3N=C(N)N)O[C@@H](C)[C@]2(O)C=O)O[C@@H](CO)[C@H](O)[C@H]1O` [STREPTOMYCIN SULFATE], the MIC came to 2.14 µM in experiment [1], 2.14 µM in experiment [2], 1.07 µM in experiment [3] and 1.07 µM in experiment [4].

On to `c1ccc(CSc2cccc3cccnc23)nc1`, for which the MIC in experiment [1] was > 198 µM; in experiment [2] it was 49.5 µM (≈ 12.5 µg/mL); in experiment [3] it was > 198 µM; in experiment [4], > 198 µM.

For the compound `c1cc(CSc2cccc3cccnc23)nc(CSc2cccc3cccnc23)c1`, the MIC in experiment [1] is > 117 µM; in experiment [2] it was 7.35 µM (≈ 3.13 µg/mL); in experiment [3], > 117 µM; in experiment [4] it was > 117 µM.
